Measurements from patent US20210123061A1, “METHODS AND COMPOSITIONS FOR TREATING INFLAMMATORY DISEASE OR DISORDER” (THE BRIGHAM AND WOMEN'S HOSPITAL, INC., priority 2018, published 2021).

How the values were obtained:
[1] = test system: STAT1 phosphorylation (Ser727, Tyr701); experiment: Immunoblot of STAT1 phosphorylation in IFN-γ-stimulated PBMC-derived macrophages; assay type: cell-based, human; settings: 10 μM pre-treatment, IFN-γ, cell lysates
Description: (§1) FIGS. 3A-3F show RSK1 is activated through JAK signaling and its inhibition suppresses STAT1 phosphorylation at Ser727 in human primary macrophages in response to IFN-γ. (FIG. 3A) PBMC-derived macrophages were pre-treated with DMSO or 10 μM a pan-JAK inhibitor, pyridone-6, for two hours and then stimulated with IFN-γ for indicated time under serum starvation. Cell lysates were subjected to immunoprecipitation with normal IgG or anti-RSK1 followed by immunoblot analysis using the indicated antibodies. WCL, whole cell lysate. N=3 donors. (FIG. 3B) Immunoblots of cell lysates from macrophages that were transfected with control siRNA or RSK1 siRNA followed by stimulation with IFN-γ for indicated time under serum starvation. N=2 donors. (FIG. 3C) Immunoblots of cell lysates from macrophages that were pre-treated with DMSO or BI-D1870 for two hours and subsequently left unstimulated or stimulated with IFN-γ for 1 hour under serum starvation. (FIG. 3D) Densitometric based quantification (ImageJ Software) of STAT1-pSer727 in panel (FIG. 3C) plus three additional donors. The phosphorylation levels in cells pretreated with DMSO and stimulated were defined as 1.0. Data are means±SE. N=6 donors. **P<0.01 indicate significance for phosphorylation levels compared to control (treatment with DMSO and IFN-γ) by Dunnett's comparison test. (FIG. 3E) Macrophages were treated with DMSO or BI-d1870 for two hours followed by IFN-γ stimulation under serum starvation. Cell lysates were subjected to immunoprecipitation with normal IgG or anti-STAT1-pSer727 followed by SYPRO ruby stain or immunoblot analysis with the indicated antibodies. Immunoprecipitants in the gel (red square) were in-gel digested for parallel reaction monitoring (PRM) mass spectrometry. (FIG. 3F) Quantification of PRM ions (MS/MS ions) of the indicated STAT1 peptide harboring a phosphorylation at Ser727 (and oxidized methionine, m), generated from the digest of panel (FIG. 3F).
Cell culture of human PBMC-derived primary macrophages. […]

[2] = test system: phospho-RSK1-Ser380; experiment: Anti-RSK1 immunoprecipitation and immunoblot in IFN-γ-stimulated PBMC-derived macrophages; assay type: cell-based, human; settings: 10 μM pre-treatment two hours, IFN-γ up to 90 minutes, serum starvation
Description: as §1, with “N=6 donors. **P<0.01 indicate significance for phosphorylation levels compared to control (treatment with DMSO and IFN-γ) by Dunnett's comparison test. (FIG. 3E) Macrophages were treated with DMSO or BI-d1870 for two hours followed by IFN-γ stimulation under serum starvation. Cell lysates were subjected to immunoprecipitation with normal IgG or anti-STAT1-pSer727 followed by SYPRO ruby stain or immunoblot analysis with the indicated antibodies. Immunoprecipitants in the gel (red square) were in-gel digested for parallel reaction monitoring (PRM) mass spectrometry.” left out, “3F). […]” for “3F).”

In the case of `CC(C)(C)c1nc2c3cc[nH]c(=O)c3c3cc(F)ccc3c2[nH]1` [Pyridone-6], the phospho-STAT-Ser727 signal [1] is reported as “similar” and the phospho-RSK1-Ser380 signal [2] is reported as “marked suppression”.
